Measured values published in US20170000715A1, “PEGYLATED 7-DEHYDROCHOLESTEROL DERIVATIVES” (HUMEDIX CO., LTD., priority 2014, published 2017).

Experiment: Solubility test (saturated aqueous solution in distilled water, gravimetric)
Format: physicochemical
Conditions: room temperature, calculated according to Equation 1
Experimental: Each of compounds of Examples 1 and 5 and 7-dehydrocholesterol as a comparative material was dissolved in an amount of 100 mg in 100 ml of distilled water, followed by stirring at room temperature for 1 hour. The procedure was repeated until each compound was saturated and those being not dissolved were filtered, to prepare each saturated aqueous solution.
Then, the saturated aqueous solution was put into a weighed empty container (A), followed by weighing (B). Then, the saturated aqueous solution in the container was concentrated in reduced pressure and dried under vacuum, followed by weighing (C). The solubility of each solution was calculated according to the following Equation 1, and the results thereof are shown in Table 2.

Structure (SMILES): CC(C)CCC[C@@H](C)[C@H]1CC[C@H]2C3=CC=C4C[C@@H](O)CC[C@]4(C)[C@H]3CC[C@]12C [7-Dehydrocholesterol, 7-dehydrocholesterol]
- Solubility: Insoluble
